Patent US20260013504A1, “HERBICIDAL MIXTURE, HERBICIDAL COMPOSITION, METHOD, USE, AND KITS FOR CONTROLLING UNDESIRABLE VEGETATION” (ADAMA AGAN LTD., priority 2022, published 2026)

What was measured:
Assay type in all cases: in vivo
Solanum nigrum = assay: Pot experiment (glass greenhouse), soil treatment, control of Solanum nigrum (fresh weight, Colby)
Galium aparine = assay: Pot experiment, soil treatment, control of Galium aparine (fresh weight, Colby)
Lithospermum arvense = assay: Pot experiment, soil treatment, control of Lithospermum arvense (fresh weight, Colby)
Aegilops tauschii = assay: Pot experiment, soil treatment, control of Aegilops tauschii (fresh weight, Colby); conditions: mixtures: both AIs at these rates, after 35 days
Lolium multiflorum Lamk = assay: Pot experiment, soil treatment, control of Lolium multiflorum Lamk (fresh weight, Colby); conditions: mixtures: both AIs at these rates, after 35 days
Bromus japonicus = assay: Pot experiment, soil treatment, control of Bromus japonicus (fresh weight, Colby); conditions: mixtures: both AIs at these rates, after 35 days
[1] = g ai/ha: pyroxasulfone 11.25, fluorochloridone 31.25, aclonifen 150, diflufenican 14.0625, terbutryn 140.625
[2] = g ai/ha: pyroxasulfone 22.5, fluorochloridone 62.5, aclonifen 300, diflufenican 28.125, terbutryn 281.25
[3] = g ai/ha: pyroxasulfone 45, fluorochloridone 125, aclonifen 600, diflufenican 56.25, terbutryn 562.5
[4] = g ai/ha: pyroxasulfone 90, fluorochloridone 250, aclonifen 1200, diflufenican 112.5, terbutryn 1125
[5] = g ai/ha: pyroxasulfone 180, fluorochloridone 500, aclonifen 2400, diflufenican 225, terbutryn 2250
[6] = g ai/ha: pyroxasulfone 360, fluorochloridone 1000, aclonifen 4800, diflufenican 450, terbutryn 4500

SMILES: Nc1c([N+](=O)[O-])ccc(Oc2ccccc2)c1Cl [aclonifen, 2-chloro-6-nitrio-3-phenoxyaniline]
- Measured fresh weight survival rate (%) - E (Solanum nigrum; 150 g ai/ha): 87.1%
- Measured fresh weight survival rate (%) - E (Solanum nigrum; 300 g ai/ha): 82.7%
- Measured fresh weight survival rate (%) - E (Solanum nigrum; 600 g ai/ha): 69.4%
- Measured fresh weight survival rate (%) - E (Solanum nigrum; 1200 g ai/ha): 56.9%
- Measured fresh weight survival rate (%) - E (Solanum nigrum; 2400 g ai/ha): 26.3%
- inhibition at 150 g/ha (Solanum nigrum; Solanum nigrum, soil, 150 g ai/ha, read-out: Measured fresh weight inhibition rate (%)): 12.9%
- inhibition at 300 g/ha (Solanum nigrum; Solanum nigrum, soil, 300 g ai/ha, read-out: Measured fresh weight inhibition rate (%)): 17.3%
- inhibition at 600 g/ha (Solanum nigrum; Solanum nigrum, soil, 600 g ai/ha, read-out: Measured fresh weight inhibition rate (%)): 30.6%
- inhibition at 1200 g/ha (Solanum nigrum; Solanum nigrum, soil, 1200 g ai/ha, read-out: Measured fresh weight inhibition rate (%)): 43.1%
- inhibition at 2400 g/ha (Solanum nigrum; Solanum nigrum, soil, 2400 g ai/ha, read-out: Measured fresh weight inhibition rate (%)): 73.7%
- Measured fresh weight survival rate (%) - E (Galium aparine; 150 g ai/ha): 79.5%
- Measured fresh weight survival rate (%) - E (Galium aparine; 300 g ai/ha): 63.0%
- Measured fresh weight survival rate (%) - E (Galium aparine; 600 g ai/ha): 9.6%
- Measured fresh weight survival rate (%) - E (Galium aparine; 1200 g ai/ha): 0.0%
- Measured fresh weight survival rate (%) - E (Galium aparine; 2400 g ai/ha): 0.0%
- inhibition at 150 g/ha (Galium aparine; Galium aparine, soil, 150 g ai/ha, read-out: Measured fresh weight inhibition rate (%)): 20.5%
- inhibition at 300 g/ha (Galium aparine; Galium aparine, soil, 300 g ai/ha, read-out: Measured fresh weight inhibition rate (%)): 37%
- inhibition at 600 g/ha (Galium aparine; Galium aparine, soil, 600 g ai/ha, read-out: Measured fresh weight inhibition rate (%)): 90.4%
- inhibition at 1200 g/ha (Galium aparine; Galium aparine, soil, 1200 g ai/ha, read-out: Measured fresh weight inhibition rate (%)): 100%
- inhibition at 2400 g/ha (Galium aparine; Galium aparine, soil, 2400 g ai/ha, read-out: Measured fresh weight inhibition rate (%)): 100%
- Measured fresh weight survival rate (%) - E (Lithospermum arvense; 150 g ai/ha): 43.5%
- Measured fresh weight survival rate (%) - E (Lithospermum arvense; 300 g ai/ha): 13.0%
- Measured fresh weight survival rate (%) - E (Lithospermum arvense; 600 g ai/ha): 1.4%
- Measured fresh weight survival rate (%) - E (Lithospermum arvense; 1200 g ai/ha): 0.0%
- Measured fresh weight survival rate (%) - E (Lithospermum arvense; 2400 g ai/ha): 0.0%
- inhibition at 150 g/ha (Lithospermum arvense; Buglossoides arvensis, soil, 150 g ai/ha, read-out: Measured fresh weight inhibition rate (%)): 56.5%
- inhibition at 300 g/ha (Lithospermum arvense; Buglossoides arvensis, soil, 300 g ai/ha, read-out: Measured fresh weight inhibition rate (%)): 87%
- inhibition at 600 g/ha (Lithospermum arvense; Buglossoides arvensis, soil, 600 g ai/ha, read-out: Measured fresh weight inhibition rate (%)): 98.6%
- inhibition at 1200 g/ha (Lithospermum arvense; Buglossoides arvensis, soil, 1200 g ai/ha, read-out: Measured fresh weight inhibition rate (%)): 100%
- inhibition at 2400 g/ha (Lithospermum arvense; Buglossoides arvensis, soil, 2400 g ai/ha, read-out: Measured fresh weight inhibition rate (%)): 100%
- Measured fresh weight inhibition rate (%) (Aegilops tauschii; [1]): 6.1%
- Measured fresh weight survival rate (%) - E (Aegilops tauschii; [1]): 93.9%
- Measured fresh weight inhibition rate (%) (Aegilops tauschii; [2]): 25.0%
- Measured fresh weight survival rate (%) - E (Aegilops tauschii; [2]): 75.0%
- Measured fresh weight inhibition rate (%) (Aegilops tauschii; [3]): 26.2%
- Measured fresh weight survival rate (%) - E (Aegilops tauschii; [3]): 73.8%
- Measured fresh weight inhibition rate (%) (Aegilops tauschii; [4]): 70.1%
- Measured fresh weight survival rate (%) - E (Aegilops tauschii; [4]): 29.9%
- Measured fresh weight inhibition rate (%) (Aegilops tauschii; [5]): 74.4%
- Measured fresh weight survival rate (%) - E (Aegilops tauschii; [5]): 25.6%
- Measured fresh weight inhibition rate (%) (Aegilops tauschii; [6]): 97.6%
- Measured fresh weight survival rate (%) - E (Aegilops tauschii; [6]): 2.4%
- Measured fresh weight inhibition rate (%) (Lolium multiflorum Lamk; [1]): 89.1%
- Measured fresh weight survival rate (%) - E (Lolium multiflorum Lamk; [1]): 10.9%
- Measured fresh weight inhibition rate (%) (Lolium multiflorum Lamk; [2]): 96.4%
- Measured fresh weight survival rate (%) - E (Lolium multiflorum Lamk; [2]): 3.6%
- Measured fresh weight inhibition rate (%) (Lolium multiflorum Lamk; [3]): 99.5%
- Measured fresh weight survival rate (%) - E (Lolium multiflorum Lamk; [3]): 0.5%
- Measured fresh weight inhibition rate (%) (Lolium multiflorum Lamk; [4]): 100.0%
- Measured fresh weight survival rate (%) - E (Lolium multiflorum Lamk; [4]): 0.0%
- Measured fresh weight inhibition rate (%) (Lolium multiflorum Lamk; [5]): 100.0%
- Measured fresh weight survival rate (%) - E (Lolium multiflorum Lamk; [5]): 0.0%
- Measured fresh weight inhibition rate (%) (Lolium multiflorum Lamk; [6]): 100.0%
- Measured fresh weight survival rate (%) - E (Lolium multiflorum Lamk; [6]): 0.0%
- Measured fresh weight inhibition rate (%) (Bromus japonicus; [1]): 45.4%
- Measured fresh weight survival rate (%) - E (Bromus japonicus; [1]): 54.6%
- Measured fresh weight inhibition rate (%) (Bromus japonicus; [2]): 86.6%
- Measured fresh weight survival rate (%) - E (Bromus japonicus; [2]): 13.4%
- Measured fresh weight inhibition rate (%) (Bromus japonicus; [3]): 100.0%
- Measured fresh weight survival rate (%) - E (Bromus japonicus; [3]): 0.0%
- Measured fresh weight inhibition rate (%) (Bromus japonicus; [4]): 100.0%
- Measured fresh weight survival rate (%) - E (Bromus japonicus; [4]): 0.0%
- Measured fresh weight inhibition rate (%) (Bromus japonicus; [5]): 100.0%
- Measured fresh weight survival rate (%) - E (Bromus japonicus; [5]): 0.0%

SMILES: Cn1nc(C(F)(F)F)c(CS(=O)(=O)C2=NOC(C)(C)C2)c1OC(F)F [pyroxasulfone, 3-[(5-difluoromethoxy-1-methyl-3-trifluoromethylpyrazol-4-yl)methylsulfonyl]-4,5-dihydro-5,5-di methyl-1,2-isoxazole]
- Measured fresh weight survival rate (%) - E (Solanum nigrum; 11.25 g ai/ha): 82.4%
- Measured fresh weight survival rate (%) - E (Solanum nigrum; 22.5 g ai/ha): 68.2%
- Measured fresh weight survival rate (%) - E (Solanum nigrum; 45 g ai/ha): 38.4%
- Measured fresh weight survival rate (%) - E (Solanum nigrum; 90 g ai/ha): 8.2%
- Measured fresh weight survival rate (%) - E (Solanum nigrum; 180 g ai/ha): 4.7%
- inhibition at 22.5 g/ha (Solanum nigrum; Solanum nigrum, soil, read-out: Measured fresh weight inhibition rate (%)): 31.8%
- inhibition at 11.25 g/ha (Solanum nigrum; Solanum nigrum, soil, 11.25 g ai/ha, read-out: Measured fresh weight inhibition rate (%)): 17.6%
- inhibition at 45 g/ha (Solanum nigrum; Solanum nigrum, soil, 45 g ai/ha, read-out: Measured fresh weight inhibition rate (%)): 61.6%
- inhibition at 90 g/ha (Solanum nigrum; Solanum nigrum, soil, 90 g ai/ha, read-out: Measured fresh weight inhibition rate (%)): 91.8%
- inhibition at 180 g/ha (Solanum nigrum; Solanum nigrum, soil, 180 g ai/ha, read-out: Measured fresh weight inhibition rate (%)): 95.3%
- Measured fresh weight survival rate (%) - E (Galium aparine; 11.25 g ai/ha): 67.1%
- Measured fresh weight survival rate (%) - E (Galium aparine; 22.5 g ai/ha): 21.9%
- Measured fresh weight survival rate (%) - E (Galium aparine; 45 g ai/ha): 4.1%
- Measured fresh weight survival rate (%) - E (Galium aparine; 90 g ai/ha): 4.1%
- Measured fresh weight survival rate (%) - E (Galium aparine; 180 g ai/ha): 0.0%
- inhibition at 11.25 g/ha (Galium aparine; Galium aparine, soil, 11.25 g ai/ha, read-out: Measured fresh weight inhibition rate (%)): 32.9%
- inhibition at 22.5 g/ha (Galium aparine; Galium aparine, soil, 22.5 g ai/ha, read-out: Measured fresh weight inhibition rate (%)): 78.1%
- inhibition at 45 g/ha (Galium aparine; Galium aparine, soil, 45 g ai/ha, read-out: Measured fresh weight inhibition rate (%)): 95.9%
- inhibition at 90 g/ha (Galium aparine; Galium aparine, soil, 90 g ai/ha, read-out: Measured fresh weight inhibition rate (%)): 95.9%
- inhibition at 180 g/ha (Galium aparine; Galium aparine, soil, 180 g ai/ha, read-out: Measured fresh weight inhibition rate (%)): 100%
- Measured fresh weight survival rate (%) - E (Lithospermum arvense; 11.25 g ai/ha): 63.8%
- Measured fresh weight survival rate (%) - E (Lithospermum arvense; 22.5 g ai/ha): 55.1%
- Measured fresh weight survival rate (%) - E (Lithospermum arvense; 45 g ai/ha): 27.5%
- Measured fresh weight survival rate (%) - E (Lithospermum arvense; 90 g ai/ha): 21.7%
- Measured fresh weight survival rate (%) - E (Lithospermum arvense; 180 g ai/ha): 10.1%
- inhibition at 11.25 g/ha (Lithospermum arvense; Buglossoides arvensis, soil, 11.25 g ai/ha, read-out: Measured fresh weight inhibition rate (%)): 36.2%
- inhibition at 22.5 g/ha (Lithospermum arvense; Buglossoides arvensis, soil, 22.5 g ai/ha, read-out: Measured fresh weight inhibition rate (%)): 44.9%
- inhibition at 45 g/ha (Lithospermum arvense; Buglossoides arvensis, soil, 45 g ai/ha, read-out: Measured fresh weight inhibition rate (%)): 72.5%
- inhibition at 90 g/ha (Lithospermum arvense; Buglossoides arvensis, soil, 90 g ai/ha, read-out: Measured fresh weight inhibition rate (%)): 78.3%
- inhibition at 180 g/ha (Lithospermum arvense; Buglossoides arvensis, soil, 180 g ai/ha, read-out: Measured fresh weight inhibition rate (%)): 89.9%
- Measured fresh weight inhibition rate (%) (Aegilops tauschii; [1]): 4.9%
- Measured fresh weight survival rate (%) - E (Aegilops tauschii; [1]): 95.1%
- Measured fresh weight inhibition rate (%) (Aegilops tauschii; [2]): 11.6%
- Measured fresh weight survival rate (%) - E (Aegilops tauschii; [2]): 88.4%
- Measured fresh weight inhibition rate (%) (Aegilops tauschii; [3]): 47.6%
- Measured fresh weight survival rate (%) - E (Aegilops tauschii; [3]): 52.4%
- Measured fresh weight inhibition rate (%) (Aegilops tauschii; [4]): 50.0%
- Measured fresh weight survival rate (%) - E (Aegilops tauschii; [4]): 50.0%
- Measured fresh weight inhibition rate (%) (Aegilops tauschii; [5]): 78.7%
- Measured fresh weight survival rate (%) - E (Aegilops tauschii; [5]): 21.3%
- Measured fresh weight inhibition rate (%) (Aegilops tauschii; [6]): 97.6%
- Measured fresh weight survival rate (%) - E (Aegilops tauschii; [6]): 2.4%
- Measured fresh weight inhibition rate (%) (Lolium multiflorum Lamk; [1]): 68.2%
- Measured fresh weight survival rate (%) - E (Lolium multiflorum Lamk; [1]): 31.8%
- Measured fresh weight inhibition rate (%) (Lolium multiflorum Lamk; [2]): 94.8%
- Measured fresh weight survival rate (%) - E (Lolium multiflorum Lamk; [2]): 5.2%
- Measured fresh weight inhibition rate (%) (Lolium multiflorum Lamk; [3]): 100.0%
- Measured fresh weight survival rate (%) - E (Lolium multiflorum Lamk; [3]): 0.0%
- Measured fresh weight inhibition rate (%) (Lolium multiflorum Lamk; [4]): 100.0%
- Measured fresh weight survival rate (%) - E (Lolium multiflorum Lamk; [4]): 0.0%
- Measured fresh weight inhibition rate (%) (Lolium multiflorum Lamk; [5]): 100.0%
- Measured fresh weight survival rate (%) - E (Lolium multiflorum Lamk; [5]): 0.0%
- Measured fresh weight inhibition rate (%) (Lolium multiflorum Lamk; [6]): 100.0%
- Measured fresh weight survival rate (%) - E (Lolium multiflorum Lamk; [6]): 0.0%
- Measured fresh weight inhibition rate (%) (Bromus japonicus; [1]): 74.2%
- Measured fresh weight survival rate (%) - E (Bromus japonicus; [1]): 25.8%
- Measured fresh weight inhibition rate (%) (Bromus japonicus; [2]): 88.7%
- Measured fresh weight survival rate (%) - E (Bromus japonicus; [2]): 11.3%
- Measured fresh weight inhibition rate (%) (Bromus japonicus; [3]): 100.0%
- Measured fresh weight survival rate (%) - E (Bromus japonicus; [3]): 0.0%
- Measured fresh weight inhibition rate (%) (Bromus japonicus; [4]): 100.0%
- Measured fresh weight survival rate (%) - E (Bromus japonicus; [4]): 0.0%
- Measured fresh weight inhibition rate (%) (Bromus japonicus; [5]): 100.0%
- Measured fresh weight survival rate (%) - E (Bromus japonicus; [5]): 0.0%
